These results are taken from patent publication US20260001875A1, “AMINOPYRIMIDINYL DERIVATIVES FOR THE TREATMENT OF PARKINSON'S DISEASE” (UNIVERSITY OF DUNDEE, priority 2022, published 2026).

Test [1] relates to Rab10 pThr73. In words: Rab10 Thr73 dephosphorylation (immunoblot) in WT MEFs. The class given is cell-based, mouse. The following applies: Mus musculus, read-out: pRab10 inhibited in WT MEFs. How it is done:
Western blot degradation assays for the LRRK2 protacs were performed with WT and PD-associated LRRK2 [G2019S] mouse embryonic fibroblasts (MEFs). The second-generation PROTACs were tested in parallel with the first generation PROTACs SD75, SD82, and SD100. The compounds were tested at 33 nM or […] concentrations for 4 hours or 24 hours, running two biological replicates per condition and achieving quantifications representative of both replicates. Analysis by quantitative immunoblotting was performed with readouts of the total LRRK2 (antibody recognizes epitope in C-terminus of protein), Rab10 pThr73 (physiological substrate) and LRRK2 pSer935 (biomarker phosphorylation site).
(§1) Primary MEFs were generated as described in a previous study (Wiggin et al., Mol. Cell Biol. 2002 April; 22(8):2871-81.). Briefly, the uterine horn was collected from adult female mice at day E12.5 and transferred to a 10 cm tissue culture dish containing cold PBS. Two forceps were used to tear the yolk sacs to isolate each embryo. Forceps were cleaned thoroughly with 70% ethanol between each embryo isolation. The embryos were culled, and a tissue piece was collected in a PCR tube for genotyping. The red tissue of the embryo, which grows to become the heart and liver, was removed. The remainder of the embryo was minced with a scalpel blade and incubated with 7.5 ml trypsin-EDTA solution for 10 minutes in a 37° C. tissue culture CO2 incubator. The dish was removed from the incubator and checked under a light microscope for single cells. 7.5 ml complete media was added to the trypsinised cells, and the cell suspension was transferred to a 15 ml Falcon tube, centrifuged at 1200 rpm for 5 minutes at room temperature. The trypsin was aspirated, the cell pellet was resuspended in 5 ml fresh complete media, and the cell suspension was plated in a 60 mm tissue culture dish and incubated in a 37° C., 5% CO2 tissue culture incubator. The MEFs at this stage were considered as passage 0 and were passaged and expanded for experimental use once the genotype was confirmed by allelic sequencing and immunoblotting. MEFs were cultured in Dulbecco's modified Eagle medium (DMEM) containing 10% (v/v) fetal bovine serum (FBS), 2 mM L-glutamine, 100 U/ml penicillin, and 100 μg/ml streptomycin supplemented with 1× non-essential amino acids and 1 mM sodium pyruvate.
Culturing and passaging of adherent cell lines were carried out using aseptic technique in CL1 or CL2 (for PBMC isolation) biological safety cabinets. All cells were incubated in a 37° C. incubator with 5% CO2. Cell lines were regularly tested for mycoplasma contamination. For western blot assay, the cells were seeded in 6-well plates. After treating with testing compounds at indicated concentrations and time period, the media was removed and the cells were washed with PBS and lysed in 100 μl ice-cold complete lysis buffer containing 50 mM Tris-HCl pH 7.4, 1 mM EGTA, 10 mM 2-glycerophosphate, 50 mM sodium fluoride, 5 mM sodium pyrophosphate, 270 mM sucrose, supplemented with 1 μg/ml microcystin-LR, 1 mM sodium orthovanadate, complete EDTA-free protease inhibitor cocktail (Roche) and 1% (v/v) Triton X-100. The cells were immediately placed on ice and were scraped and collected into 1.5 ml Eppendorf tubes. Cell lysates were incubated on ice for 10 minutes prior to centrifugation at 15,000 g at 4° C. for 15 minutes. The cell pellet was discarded, and supernatant was collected for analysis by quantitative immunoblotting. For long term storage, the supernatant was flash frozen and stored at −80° C. Protein concentrations of cell lysates were determined using the Bradford assay.
Cell lysates containing a quarter of a volume of 4× NuPAGE LDS sample buffer (NP0007) supplemented with 5% β-mercaptoethanol, were heated at 95° C. for 5 minutes. […]

The test system of test [2] is Rab10 pThr73. Briefly: Rab10 Thr73 dephosphorylation (immunoblot) in LRRK2^G2019S MEFs. The class given is cell-based, mouse. The following applies: Mus musculus, read-out: pRab10 inhibited in LRRK2^G2019S MEFs. A general note: In western blotting, separated proteins are transferred to a membrane and probed.
Test [3] concerns Rab10 pThr73. The description is as above. It counts as cell-based. Particulars: Mus musculus, read-out: pRab10 inhibited in LRRK2^G2019S MEFs. The method, then: The second-generation PROTACs were tested in parallel with the first generation PROTACs SD75, SD82, and SD100. The compounds were tested at 33 nM or […] concentrations for 4 hours or 24 hours, running two biological replicates per condition and achieving quantifications representative of both replicates. Analysis by quantitative immunoblotting was performed with readouts of the total LRRK2 (antibody recognizes epitope in C-terminus of protein), Rab10 pThr73 (physiological substrate) and LRRK2 pSer935 (biomarker phosphorylation site).
as §1
Culturing and passaging of adherent cell lines were carried out using aseptic technique in CL1 or CL2 (for PBMC isolation) biological safety cabinets. All cells were incubated in a 37° C. incubator with 5% CO2. Cell lines were regularly tested for mycoplasma contamination. For western blot assay, the cells were seeded in 6-well plates. […] The cells were immediately placed on ice and were scraped and collected into 1.5 ml Eppendorf tubes. Cell lysates were incubated on ice for 10 minutes prior to centrifugation at 15,000 g at 4° C. for 15 minutes. The cell pellet was discarded, and supernatant was collected for analysis by quantitative immunoblotting. For long term storage, the supernatant was flash frozen and stored at −80° C. Protein concentrations of cell lysates were determined using the Bradford assay.
Cell lysates containing a quarter of a volume of 4× NuPAGE LDS sample buffer (NP0007) supplemented with 5% β-mercaptoethanol, were heated at 95° C. for 5 minutes. 15 to 20 μg of samples were loaded onto pre-cast 4-12% Bis-Tris midi 20W or 26W gels (Thermofisher Scientific®, Cat #WG1402BOX or WG1403BOX) and resolved at 130 V for 2 hours with NuPAGE MOPS SDS running buffer (Thermofisher Scientific® Cat #NP0001-02). Proteins were electrophoretically transferred onto a 0.45 μm nitrocellulose membrane (GE Healthcare, Amersham Protran® Supported 0.45 mm NC) at 90 V for 90 min on ice in transfer buffer (48 mM Tris base and 39 mM glycine supplemented with 20% methanol). The transferred membrane was blocked with 5% (w/v) skim milk powder dissolved in tris-buffered saline with tween (TBS-T) (50 mM Tris base, 150 mM sodium chloride (NaCl), 0.1% (v/v) Tween-20) at room temperature for 1 hour.

With `CNc1nc(Nc2ccc(C(=O)N3CCN(CCCSC(C)(C)[C@H](NC(=O)C4(F)CC4)C(=O)N4C[C@H](O)C[C@H]4C(=O)NCc4ccc(-c5scnc5C)cc4)CC3)cc2OC)ncc1C(F)(F)F` [XL01072, (2S,4R)-1-((R)-2-(1-fluorocyclopropane-1-carboxamido)-3-((3-(4-(3-methoxy-4-((4-(methylamino)-5-(trifluoromethyl)pyrimidin-2-yl)amino)benzoyl)piperazin-1-yl)propyl)thio)-3-methylbutanoyl)-4-hydroxy-N-(4-(4-methylthiazol-5-yl)benzyl)pyrrolidine-2-carboxamide], the inhibition at 0.033 µM with Rab10 pThr73 [1] (33 nM/4 h treatment) lay within 0 to 40%; with Rab10 pThr73 [1] (33 nM/24 h treatment), 0 to 60%; with Rab10 pThr73 [3] (33 nM/4 h treatment), 0 to 70%; in the test on Rab10 pThr73 [3] (33 nM/24 h treatment), 0 to 90%. Moreover, the inhibition at 1 µM with Rab10 pThr73 [1] (1 μM/4 h treatment) is 10 to 95%; in the test with Rab10 pThr73 [1] (1 μM/24 h treatment) it was 30 to 100%; with Rab10 pThr73 [2] (1 μM/4 h treatment) it was 20 to 100%; in the test with Rab10 pThr73 [2] (1 μM/24 h treatment), 10 to 100%.
As to `CNc1nc(Nc2ccc(C(=O)N3CCN(CC#CCSC(C)(C)[C@H](NC(=O)C4(F)CC4)C(=O)N4C[C@H](O)C[C@H]4C(=O)NCc4ccc(-c5scnc5C)cc4)CC3)cc2OC)ncc1Cl` [XL01076, (2S,4R)-1-((R)-3-((4-(4-(4-((5-chloro-4-(methylamino)pyrimidin-2-yl)amino)-3 methoxybenzoyl)piperazin-1-yl)but-2-yn-1-yl)thio)-2-(1-fluorocyclopropane-1-carboxamido)-3-methylbutanoyl)-4-hydroxy-N-(4-(4-methylthiazol-5-yl)benzyl)pyrrolidine-2-carboxamide], the inhibition at 0.033 µM in the test on Rab10 pThr73 [1] (33 nM/4 h treatment) lay within 0 to 40%; with Rab10 pThr73 [1] (33 nM/24 h treatment), 0 to 60%; in the test with Rab10 pThr73 [3] (33 nM/4 h treatment) it was 0 to 70%; in the test with Rab10 pThr73 [3] (33 nM/24 h treatment), 0 to 90%. The inhibition at 1 µM fell in the range of 10 to 95% in the test on Rab10 pThr73 [1] (1 μM/4 h treatment), 30 to 100% in the test with Rab10 pThr73 [1] (1 μM/24 h treatment), 20 to 100% in the test on Rab10 pThr73 [2] (1 μM/4 h treatment) and 10 to 100% in the test with Rab10 pThr73 [2] (1 μM/24 h treatment).
With `CNc1nc(Nc2ccc(C(=O)N3CCN(CCOCCOCCSC(C)(C)[C@@H](NC(=O)C4(F)CC4)C(=O)N4C[C@H](O)C[C@H]4C(=O)NCc4ccc(-c5scnc5C)cc4)CC3)cc2OC)ncc1C(F)(F)F` [XL01078B, (2S,4R)-1-((S)-2-(1-fluorocyclopropane-1-carboxamido)-3-((2-(2-(2-(4-(3-methoxy-4-((4-(methylamino)-5-(trifluoromethyl)pyrimidin-2-yl)amino)benzoyl)piperazin-1-yl)ethoxy)ethoxy)ethyl)thio)-3-methylbutanoyl)-4-hydroxy-N-(4-(4-methylthiazol-5-yl)benzyl)pyrrolidine-2-carboxamide], the inhibition at 0.033 µM lay in the range of 0 to 40% with Rab10 pThr73 [1] (33 nM/4 h treatment), 0 to 60% with Rab10 pThr73 [1] (33 nM/24 h treatment), 0 to 70% in the test with Rab10 pThr73 [3] (33 nM/4 h treatment) and 0 to 90% in the test with Rab10 pThr73 [3] (33 nM/24 h treatment). The inhibition at 1 µM in the test on Rab10 pThr73 [1] (1 μM/4 h treatment) fell in the range of 10 to 95%; with Rab10 pThr73 [1] (1 μM/24 h treatment), 30 to 100%; in the test with Rab10 pThr73 [2] (1 μM/4 h treatment), 20 to 100%; with Rab10 pThr73 [2] (1 μM/24 h treatment), 10 to 100%.
`CNc1nc(Nc2ccc(C(=O)N3CCN(Cc4cccc(CSC(C)(C)[C@H](NC(=O)C5(F)CC5)C(=O)N5C[C@H](O)C[C@H]5C(=O)NCc5ccc(-c6scnc6C)cc5)c4)CC3)cc2OC)ncc1Cl` [XL01111, (2S,4R)-1-((R)-3-((3-((4-(4-((5-chloro-4-(methylamino)pyrimidin-2-yl)amino)-3-methoxybenzoyl)piperazin-1-yl)methyl)benzyl)thio)-2-(1-fluorocyclopropane-1-carboxamido)-3-methylbutanoyl)-4-hydroxy-N-(4-(4-methylthiazol-5-yl)benzyl)pyrrolidine-2-carboxamide]: the inhibition at 0.033 µM in the test with Rab10 pThr73 [1] (33 nM/4 h treatment) lay in the range of 0 to 40%; with Rab10 pThr73 [1] (33 nM/24 h treatment), 0 to 60%; with Rab10 pThr73 [3] (33 nM/4 h treatment), 0 to 70%; in the test on Rab10 pThr73 [3] (33 nM/24 h treatment), 0 to 90%. Further, the inhibition at 1 µM was 10 to 95% in the test with Rab10 pThr73 [1] (1 μM/4 h treatment), 30 to 100% in the test on Rab10 pThr73 [1] (1 μM/24 h treatment), 20 to 100% in the test with Rab10 pThr73 [2] (1 μM/4 h treatment) and 10 to 100% in the test on Rab10 pThr73 [2] (1 μM/24 h treatment).
On to `CNc1nc(Nc2ccc(C(=O)N3CCN(CCCSC(C)(C)[C@H](NC(=O)C4(F)CC4)C(=O)N4C[C@H](O)C[C@H]4C(=O)N[C@@H](C)c4ccc(-c5scnc5C)cc4)CC3)cc2OC)ncc1Cl` [XL01118, (2S,4R)-1-((R)-3-((3-(4-(4-((5-chloro-4-(methylamino)pyrimidin-2-yl)amino)-3-methoxybenzoyl)piperazin-1-yl)propyl)thio)-2-(1-fluorocyclopropane-1-carboxamido)-3-methylbutanoyl)-4-hydroxy-N—((S)-1-(4-(4-methylthiazol-5-yl)phenyl)ethyl)pyrrolidine-2-carboxamide], for which the inhibition at 0.033 µM was 0 to 40% in the test on Rab10 pThr73 [1] (33 nM/4 h treatment), 0 to 60% in the test on Rab10 pThr73 [1] (33 nM/24 h treatment), 0 to 70% in the test with Rab10 pThr73 [3] (33 nM/4 h treatment) and 0 to 90% in the test with Rab10 pThr73 [3] (33 nM/24 h treatment). Besides, the inhibition at 1 µM was in the range of 10 to 95% in the test with Rab10 pThr73 [1] (1 μM/4 h treatment), 30 to 100% with Rab10 pThr73 [1] (1 μM/24 h treatment), 20 to 100% in the test on Rab10 pThr73 [2] (1 μM/4 h treatment) and 10 to 100% in the test on Rab10 pThr73 [2] (1 μM/24 h treatment).
